Laboratory results: patent publication US8461349B2, “Fungicidal active substance combinations containing trifloxystrobin” (Bayer CropScience AG, priority 2001, dated 2013)
Several values for one entry are separate records, joined by “and”; a condition that tells them apart may be missing. Equal entries are not always repeated.

Columns and labels:
Format in all cases: in vivo
[1] = system: cotton aphid (Aphis gossypii); test: Aphis gossypii test (cotton leaves dipped)
Protocol: (§1) • Solvent: 7 parts by weight of dimethylformamide • Emulsifier: 2 parts by weight of alkylaryl polyglycol ether
To produce a suitable preparation of active compound, 1 part by weight of active compound is mixed with the stated amounts of solvent and emulsifier, and the concentrate is diluted with water to the desired concentrations.
Cotton leaves (Gossypium hirsutum) which are heavily infested by the cotton aphid (Aphis gossypii) are treated by being dipped into the preparation of active compound of the desired concentration.
(§2) After the desired period of time, the kill in % is determined. 100% means that all aphids have been killed; 0% means that none of the aphids have been killed. The kill rates that have been determined are evaluated using Colby's formula.

[2] = system: green peach aphid (Myzus persicae); test: Myzus test (cabbage leaves dipped)
Protocol: as §1
(§3) To produce a suitable preparation of active compound, 1 part by weight of active compound is mixed with the stated amounts of solvent and emulsifier, and the concentrate is diluted with emulsifier-containing water to the desired concentration.
Cabbage leaves (Brassica oleracea) which are heavily infested by the green peach aphid (Myzus persicae) are treated by being dipped into the preparation of active compound of the desired concentration.
as §2

[3] = system: larvae of the mustard beetle (Phaedon cochleariae); test: Phaedon larvae test (cabbage leaves dipped)
Protocol: as §1, §3
Cabbage leaves (Brassica oleracea) are treated by being dipped into the preparation of active compound of the desired concentration and are populated with larvae of the mustard beetle (Phaedon cochleariae) while the leaves are still moist.
After the desired period of time, the kill in % is determined. 100% means that all beetle larvae have been killed; 0% means that none of the beetle larvae have been killed. The kill rates that have been determined are evaluated using Colby's formula.

[4] = system: caterpillars of the army worm (Spodoptera frugiperda); test: Spodoptera frugiperda test (cabbage leaves dipped)
Protocol: as §1, §3
Cabbage leaves (Brassica oleracea) are treated by being dipped into the preparation of active compound of the desired concentration and are populated with caterpillars of the army worm (Spodoptera frugiperda) while the leaves are still moist.
(§4) After the desired period of time, the kill in % is determined. 100% means that all caterpillars have been killed; 0% means that none of the caterpillars have been killed. The kill rates that have been determined are evaluated using Colby's formula.

[5] = system: caterpillars of the diamond back moth (Plutella xylostella, sensitive strain); test: Plutella test (cabbage leaves dipped)
Protocol: as §1, §3
Cabbage leaves (Brassica oleracea) are treated by being dipped into the preparation of active compound of the desired concentration and are populated with caterpillars of the diamond back moth (Plutella xylostella, sensitive strain) while the leaves are still moist.
as §4

N#C/N=C1\SCCN1Cc1ccc(Cl)nc1 [thiacloprid (III)]
Kill rate in % after 6^d ([1]; 0.8 ppm): 55% | Kill rate in % after 6^d ([2]; 0.8 ppm): 85% | Kill rate in % after 3^d ([3]; 4 ppm): 10% | Kill rate in % after 3^d ([4]; 4 ppm): 0%

O=[N+]([O-])/N=C1\NCCN1Cc1ccc(Cl)nc1 [imidacloprid (II), 1-[(6-chloro-3-pyridinyl)methyl]-N-nitro-2-imidazolidineimine]
Kill rate in % after 6^d ([1]; 0.16 ppm): 25% | Kill rate in % after 6^d ([2]; 0.16 ppm): 25% | Kill rate in % after 3^d ([3]; 4 ppm): 35% | Kill rate in % after 3^d ([4]; 4 ppm): 0%

CON=C(C(=O)OC)c1ccccc1CO/N=C(\C)c1cccc(C(F)(F)F)c1 [trifloxystrobin (I), methyl 2-[α-{[(α-methyl-3-trifluoromethylbenzyl)imino]oxy}-o-tolyl]-glyoxylate O-methyl oxime]
Kill rate in % after 1^d ([1]; 4 ppm): 0% | Kill rate in % after 6^d ([1]; 4 ppm): 0% | Kill rate in % after 1^d ([1]; 20 ppm): 0% | Kill rate in % after 6^d ([1]; 20 ppm): 0% | Kill rate in % after 6^d ([2]; 4 ppm): 0% | Kill rate in % after 6^d ([2]; 20 ppm): 0% | Kill rate in % after 6^d ([2]; 100 ppm): 10% | Kill rate in % after 3^d ([3]; 100 ppm): 0% and 5% | Kill rate in % after 3^d ([5]; 100 ppm): 0% | Kill rate in % after 3^d ([4]; 100 ppm): 0% and 5% | Kill rate in % after 6^d ([4]; 100 ppm): 0%

CN/C(=N\[N+](=O)[O-])NCc1cnc(Cl)s1 [chlothianidin (VII)]
Kill rate in % after 6^d ([2]; 0.8 ppm): 95% | Kill rate in % after 3^d ([3]; 4 ppm): 30% | Kill rate in % after 3^d ([4]; 4 ppm): 85%

CN/C(=N\[N+](=O)[O-])NCC1CCOC1 (stereo not shown) [dinotefuran (VIII)]
Kill rate in % after 6^d ([1]; 0.8 ppm): 0% | Kill rate in % after 6^d ([2]; 4 ppm): 0% | Kill rate in % after 3^d ([3]; 4 ppm): 5% | Kill rate in % after 6^d ([4]; 4 ppm): 70%

C/C(=N\C#N)N(C)Cc1ccc(Cl)nc1 [acetamiprid (IV)]
Kill rate in % after 1^d ([1]; 0.16 ppm): 25% | Kill rate in % after 6^d ([2]; 0.16 ppm): 20% | Kill rate in % after 3^d ([3]; 4 ppm): 5% | Kill rate in % after 3^d ([5]; 4 ppm): 0% | Kill rate in % after 3^d ([4]; 4 ppm): 65%
